Measurements taken from article PMC2559818 (BMC Clinical Pharmacology, 2008).
“And” between values parts separate entries of the source, which are not always exact repeats. Identical values can stand only once.

Experiments:
[1] = Long-term Pt levels in plasma of treated patients (ICP-MS); format: in vivo; details: patients treated 8 to 75 months before
Procedure: Whole blood samples for Pt analysis were collected in 10 mL EDTA containing tubes (Becton Dickinson Vacutainer Systems, Plymouth, UK). EDTA was preferred above heparin because the fraction peripheral blood mononuclear cells (PBMCs) could be isolated easier from EDTA plasma. […] Plasma was obtained by centrifuging the whole blood samples for 15 min (1,000 g, 4°C). The fraction containing PBMCs was isolated from the whole blood sample using the method described by Pluim et al [13]. PUF was obtained by centrifuging the plasma fraction through 3 and 30 kDa cut-off ultrafiltrate filter (Centriplus Millipore Corporation, Bedford, MA, USA) for 30 min (1,000 g, 20°C). […] All samples were stored at -20°C until analysis.
Pt analyses were performed using an ICP-MS and a validated method described previously [15]. Pt levels were assessed in plasma, pUF, and bound to DNA in PBMCs. DNA was isolated from PBMCs using a method described by Pluim et al [13]. Before ICP-MS analysis, the DNA was hydrolysed in 1% (v/v) HNO3 solution at 70°C. The limit of quantification (LLOQ) of the method was 20 ng/L for plasma, 7.5 ng/L for pUF, and the absolute sensitivity for Pt bound to DNA was 0.75 pg Pt (7.5 fg Pt per μg DNA when using 100 μg DNA). The LLOQs were determined on the basis of five times the noise in blank matrix solutions.

[2] = Long-term Pt levels in plasma ultrafiltrate (pUF) of treated patients (ICP-MS); format: in vivo, human; details: pUF prepared after sampling
Procedure: Whole blood samples for Pt analysis were collected in 10 mL EDTA containing tubes (Becton Dickinson Vacutainer Systems, Plymouth, UK). […] Plasma was obtained by centrifuging the whole blood samples for 15 min (1,000 g, 4°C). […] PUF was obtained by centrifuging the plasma fraction through 3 and 30 kDa cut-off ultrafiltrate filter (Centriplus Millipore Corporation, Bedford, MA, USA) for 30 min (1,000 g, 20°C). […] All samples were stored at -20°C until analysis.
Pt analyses were performed using an ICP-MS and a validated method described previously [15]. Pt levels were assessed in plasma, pUF, and bound to DNA in PBMCs.

calf thymus DNA = assay: Assessment of DNA binding activity of Pt in pUF (ex vivo incubation); details: for DNA binding of Pt in patient pUF samples: pUF of two treated patients per drug; for DNA binding of Pt in patient pUF samples / Added Pt bound to DNA: five-day incubation with calf thymus DNA; for Added Pt bound to DNA: parent compound added to pUF of healthy volunteers; for Total binding capacity of equivalent concentrations of parent compound recovered (average): patient pUF, more than 8 months after end of treatment
Procedure: The latter was done to assess the binding capacity of the parent compounds at concentrations in the same range as the patients samples. After a five-day incubation to achieve a maximal Pt-DNA binding, the DNA was precipitated, washed and dissolved in water as described by Brouwers et al. After hydrolysis, the Pt-DNA binding was assessed.

plasma proteins [3] = assay: Ex vivo assessment of protein binding capacity of Pt in pUF (plasma storage); format: in vitro ADME, human
Procedure: Pt concentrations analysed in pUF prepared after storage were compared to Pt concentrations analysed in pUF which was prepared immediately after blood sampling. Additionally, plasma samples were reanalyzed to assess whether or not Pt concentrations in plasma were reduced during storage due to adsorption to the tubes.

plasma proteins [4] = assay: Ex vivo activity of STS (release of Pt from plasma proteins); format: in vitro ADME, human; details: for Percentage of plasma Pt recovered in pUF after STS incubation: 750 μL plasma + 25 μL 250 g/L STS
Procedure: Therefore, 750 μL of plasma were incubated with 25 μL of a 250 g/L STS solution. As control, 750 μL of plasma were incubated with 25 μL of water. After incubation, pUF was prepared and Pt concentrations of the STS incubated samples and control samples were compared. Protein concentrations in the ultrafiltrates were analysed using a 2-D Quant Kit (GE healthcare Bio-Sciences AB, Uppsala, Sweden).

[5] = Effects of determinants on in vivo plasma Pt levels (NONMEM modelling)
Procedure: Additionally, serum creatinine was assessed at the time of study.
Possible relationships between determinants and Pt levels were evaluated using non-linear mixed effects modeling using NONMEM software (Version V1) (GloboMax LLC, Ellicott city, MD, USA). The first order conditional estimation method was used throughout. It was assumed that, due to the long follow-up, the treatment period was negligible compared to the follow-up time. The significance of established relationships was assessed using the likelihood ratio test.

[6] = Renal function (MDRD GFR) at chemotherapy and at follow-up; format: in vivo, human
Procedure: Differences between Pt levels of cisplatin and oxaliplatin treated patients, control cancer patients, and healthy controls were evaluated using the Mann-Whitney U test. The Wilcoxon signed rank test was used to test the difference between the renal function at the time of chemotherapy and at follow-up. Correlations between plasma and pUF level of Pt treated patients were evaluated by the Pearson correlation coefficient. SPSS was used to perform these tests.
Pt levels were proportional to the cumulative dose. […] An association between GSTT1,GSTM1, and GSTP1 genotypes and Pt levels could not be established. The effect of the renal function on Pt levels was evaluated using the glomerular filtration rate (GFR) which was calculated with the 'Modification of Diet in Renal Disease (MDRD)'-formula [21]. […] Figure 3 and 4 show the MDRD GFR for patients at the start of their chemotherapy treatment and at follow-up. […] Long-term plasma Pt concentrations were lower when the GFR at the time of chemotherapy was higher.

[7] = plasma stored at -30°C for 144-278 days
[8] = individual patient plasma samples
[9] = two-compartment model, per compound

SMILES | Plasma Pt levels relative to mean level of unexposed controls [1] [fold] | Percentage of plasma Pt recovered in pUF (average) [2] [%] | DNA binding of Pt in patient pUF samples (calf thymus DNA) | Added Pt bound to DNA (calf thymus DNA) [%] | Total binding capacity of equivalent concentrations of parent compound recovered (average) (calf thymus DNA) [%] | Percentage of plasma Pt recovered in pUF after storage (plasma proteins [3]; individual patient samples, 144-278 days of storage at -30°C) | Percentage of plasma Pt recovered in pUF before storage (plasma proteins [3]; individual patient samples, pUF prepared immediately after blood sampling) | Decrease in Pt concentrations in pUF after storage (average) (plasma proteins [3]; [7]) [%] | Plasma Pt concentrations over storage time (plasma proteins [3]; [7]) | Factor increase of Pt in pUF after STS incubation (plasma proteins [4]; [8]) | Percentage of plasma Pt recovered in pUF after STS incubation (plasma proteins [4]; [8]) | Percentage of plasma Pt recovered in pUF (plasma proteins [4]; individual patient plasma samples, control incubation with water) | Increase in Pt pUF concentrations in samples prepared from STS treated plasma (plasma proteins [4]; over four samples per drug) [fold] | First elimination half-life (t1/2) of plasma Pt [5, 9] [months] | Second elimination half-life (t1/2) of plasma Pt [5, 9] [months] | GFR at the time of the current study (follow-up) ([6]; MDRD formula) [mL/min/1.73 m^2] | Median GFR before start of the Pt chemotherapy ([6]; MDRD formula) [mL/min/1.73 m^2] | Reduction in long-term plasma Pt levels ([5]; STS co-administration with intra-arterial cisplatin, p < 0.001) [%] | GFR at the time of the current study (follow-up) ([6]; in vivo) [mL/min/1.73 m^2] | Median GFR before start of the Pt chemotherapy ([6]; in vivo) [mL/min/1.73 m^2]
O=C1[O][Pt]2([NH][C@@H]3CCCC[C@H]3[NH]2)[O]C1=O [Oxaliplatin, oxaliplatin] | > 30 | 24.2 | 0.78% and 1.1% | 21 | 4.3 | 25.2 and 21.2 and 16 and 15.8 | 28.2 and 27.8 and 25.9 and 22.9 | 26 | remained constant over time | 1.5-fold and 1.4-fold and 2.0-fold | 40.4 and 46.2 and 39.5 and 38.7 | 27.2 and 32.2 and 20 and 26.5 | 1.6 | 1.37 | 535 | 61 | 65 | – | – | –
O=S([O-])([O-])=S.[Na+].[Na+] [STS, sodium thiosulfate] | – | – | – | – | – | – | – | – | – | – | – | – | – | – | – | – | – | 71 | – | –
N.N.[Cl][Pt][Cl] [Cisplatin, cisplatin] | – | – | 1.8% and 2.4% | 21 | 10 | – | – | – | – | 1.4-fold and 2.7-fold and 2.3-fold and 2.9-fold | 17.5 and 34.9 and 30.7 and 36.6 | – | – | – | – | – | – | – | 55 | 78
